Measured values published in ChEMBL document CHEMBL1128096, “Gamma-lactams and related compounds as cholesterol absorption inhibitors: homologs of the beta-lactam cholesterol absorption inhibitor SCH 484611” (1995).
Activity calls are given as the source filed them. The calls are words filed in the database; no cut-off is given here.

These compounds were tested on Cricetinae gen. sp. (assay: Ability to reduce liver cholesterol ester (L/CE) levels in the cholesterol fed hamster model at a dose of 50 mg/k). Settings: not given.
Assay type: functional, Cricetulus griseus

Question: How did the L/CE turn out when `COc1ccc([C@@H]2[C@H](CCc3ccccc3)CC(=O)N2c2ccc(OC)cc2)cc1` was run?
Answer: 16%

Question: How did the L/CE turn out when `COc1ccc([C@@H]2[C@@H](CCc3ccccc3)NC(=O)N2c2ccccc2)cc1` was run?
Answer: 34%

Question: How did the L/CE turn out when `COc1ccc([C@@H]2[C@@H](CCCc3ccccc3)CC(=O)N2c2ccc(OC)cc2)cc1` was run?
Answer: 12%

Question: With `COc1ccc([C@@H]2[C@@H](CCCc3ccccc3)C(=O)N2c2ccc(OC)cc2)cc1` [SCH-48461] as the compound, how does the L/CE read?
Answer: 78%

Question: Which L/CE does the source give for `COc1ccc([C@@H]2[C@@H](CCCc3ccccc3)S(=O)(=O)N2c2ccccc2)cc1` here?
Answer: 51%

Question: With `COc1ccc([C@@H]2[C@H](c3ccc4ccccc4c3)CC(=O)N2c2ccc(OC)cc2)cc1` as the compound, how does the L/CE read?
Answer: 21%

Question: For `COc1ccc([C@@H]2[C@H](CCc3ccccc3)OC(=O)N2c2ccccc2)cc1`, which L/CE is on record?
Answer: 21%

Question: For `COc1ccc([C@@H]2[C@H](CCCc3ccccc3)C(=O)N2c2ccc(OC)cc2)cc1` (racemic), which L/CE is on record?
Answer: 95%

Question: Which L/CE does the source give for `COc1ccc([C@@H]2[C@@H](CCc3ccccc3)CC(=O)N2c2ccc(OC)cc2)cc1` here?
Answer: 24%

Question: How did the L/CE turn out when `COc1ccc([C@@H]2[C@@H](CCc3ccccc3)OC(=O)N2c2ccccc2)cc1` was run?
Answer: 34%

Question: `COc1ccc([C@@H]2[C@H](CCCc3ccccc3)S(=O)(=O)N2c2ccccc2)cc1` was tested. Which L/CE did it give?
Answer: 43%

Question: `COc1ccc([C@@H]2[C@H](CCCCc3ccccc3)CC(=O)N2c2ccc(OC)cc2)cc1` was tested. Which L/CE did it give?
Answer: 30%

Question: Which L/CE does the source give for `COc1ccc([C@@H]2[C@@H](CCCCc3ccccc3)CC(=O)N2c2ccc(OC)cc2)cc1` here?
Answer: 52%

Question: How did the L/CE turn out when `COc1ccc([C@@H]2[C@@H](CCCc3ccccc3)C(=S)N2c2ccc(OC)cc2)cc1` was run?
Answer: 23%

Question: `COc1ccc([C@@H]2[C@@H](CCCc3ccccc3)OC(=O)N2c2ccccc2)cc1` was tested. Which L/CE did it give?
Answer: 47%

Question: Which L/CE does the source give for `COc1ccc([C@@H]2[C@H](CCCc3ccccc3)CC(=O)N2c2ccc(OC)cc2)cc1` here?
Answer: 43%

Question: Which L/CE does the source give for `COc1ccc([C@@H]2[C@@H](c3ccc4ccccc4c3)CC(=O)N2c2ccc(OC)cc2)cc1` here?
Answer: 28%

Each compound was assayed on Cricetinae gen. sp. (assay: Tested for ability to reduce liver cholesterol ester (L/CE) levels in the cholesterol fed hamster model at a dose of 50 mg/kg; NE: No effect). Settings: Cricetulus griseus.
Assay type: functional, organism-based
Set-up: dose 50 mg/kg

Question: How did the L/CE turn out when `COc1ccc([C@H]2CN(c3ccc(OC)cc3)C(=O)[C@@H]2CCCc2ccccc2)cc1` was run?
Answer: inactive

Question: With `COc1ccc([C@H]2C[C@@H](CCCCc3ccccc3)C(=O)N2c2ccccc2)cc1` as the compound, how does the L/CE read?
Answer: inactive

Question: With `COc1ccc([C@@H]2C[C@@H](CCCCc3ccccc3)C(=O)N2c2ccccc2)cc1` as the compound, how does the L/CE read?
Answer: inactive

Question: `COc1ccc([C@@H]2C[C@@H](CCCc3ccccc3)C(=O)N2c2ccc(OC)cc2)cc1` was tested. Which L/CE did it give?
Answer: inactive

Each compound was assayed on Cricetinae gen. sp. (assay: Tested for ability to reduce liver cholesterol ester (L/CE) levels in the cholesterol fed hamster model at a dose of 10 mg/kg). Settings: not given.
Assay type: functional, Cricetulus griseus

Question: How did the L/CE turn out when `COc1ccc([C@@H]2[C@@H](CCCc3ccccc3)C(=O)N2c2ccc(OC)cc2)cc1` [SCH-48461] was run?
Answer: 93%

Question: With `COc1ccc([C@@H]2[C@H](CCCc3ccccc3)C(=O)N2c2ccc(OC)cc2)cc1` as the compound, how does the L/CE read?
Answer: 69%
